Results published in PubChem BioAssay AID270 (DTP/NCI, 2004).
Values joined by “and” are separate entries in the source; they are usually repeats but may differ in a detail not shown here. Equal values may be shown once. Results filed as inconclusive are left out.

System: BDF1 mice, s.c. Lewis lung carcinoma, T/C %
Assay: NCI In Vivo Anticancer Drug Screen. Data for tumor model Lewis Lung Carcinoma (subcutaneous) in B6D2F1 (BDF1) mice
Method in brief: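 Transplanted tumors grown in mice; compound vs vehicle dosing; endpoint survival or tumor size; ratio T/C.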

CC1CCC(NC(=O)N(CCCl)N=O)CC1 (configuration not stated)
T/C (endpoint: mean survival time, dose: 8.0 mg/kg/injection, schedule: Q08DX002 (ip), vehicle: saline + alcohol, higher = longer survival): 97 % of control | T/C (endpoint: mean survival time, dose: 16.0 mg/kg/injection, schedule: Q08DX002 (ip), vehicle: saline + alcohol, higher = longer survival): 105 % of control | T/C (endpoint: mean survival time, dose: 24.0 mg/kg/injection, schedule: Q08DX002 (ip), vehicle: saline + alcohol, higher = longer survival): 123 % of control | T/C (endpoint: median survival time, dose: 0.5 mg/kg/injection, schedule: Q01DX001 (ip), vehicle: Klucel (hydroxypropylcellulose) (HPC), higher = longer survival): 107 % of control | T/C (endpoint: median survival time, dose: 1.0 mg/kg/injection, schedule: Q01DX001 (ip), vehicle: Klucel (hydroxypropylcellulose) (HPC), higher = longer survival): 86 % of control | T/C (endpoint: median survival time, dose: 1.0 mg/kg/injection, schedule: Q01DX005 (ip), vehicle: saline + alcohol, higher = longer survival): 90 % of control and 107 % of control | T/C (endpoint: median survival time, dose: 1.0 mg/kg/injection, schedule: Q02DX009 (ip), vehicle: saline + alcohol, higher = longer survival): 106 % of control and 124 % of control | T/C (endpoint: median survival time, dose: 2.0 mg/kg/injection, schedule: Q01DX005 (ip), vehicle: saline + alcohol, higher = longer survival): 113 % of control and 114 % of control | T/C (endpoint: median survival time, dose: 2.0 mg/kg/injection, schedule: Q01DX009 (ip), vehicle: Klucel (hydroxypropylcellulose) (HPC), higher = longer survival): 90 % of control and 105 % of control and 120 % of control | T/C (endpoint: median survival time, dose: 2.0 mg/kg/injection, schedule: Q01DX009 (ip), vehicle: saline with Tween-80, higher = longer survival): 91 % of control and 114 % of control | T/C (endpoint: median survival time, dose: 2.0 mg/kg/injection, schedule: Q02DX009 (ip), vehicle: saline + alcohol, higher = longer survival): 115 % of control | T/C (endpoint: median survival time, dose: 4.0 mg/kg/injection, schedule: Q01DX001 (ip), vehicle: Klucel (hydroxypropylcellulose) (HPC), higher = longer survival): 86 % of control | T/C (endpoint: median survival time, dose: 4.0 mg/kg/injection, schedule: Q01DX005 (ip), vehicle: saline + alcohol, higher = longer survival): 93 % of control and 105 % of control | T/C (endpoint: median survival time, dose: 4.0 mg/kg/injection, schedule: Q01DX009 (ip), vehicle: Klucel (hydroxypropylcellulose) (HPC), higher = longer survival): 92 % of control and 97 % of control | T/C (endpoint: median survival time, dose: 4.0 mg/kg/injection, schedule: Q01DX009 (ip), vehicle: saline with Tween-80, higher = longer survival): 98 % of control | T/C (endpoint: median survival time, dose: 4.0 mg/kg/injection, schedule: Q02DX009 (ip), vehicle: saline + alcohol, higher = longer survival): 90 % of control and 115 % of control | T/C (endpoint: median survival time, dose: 6.7 mg/kg/injection, schedule: Q01DX005 (ip), vehicle: saline with Tween-80, higher = longer survival): 105 % of control and 113 % of control | T/C (endpoint: median survival time, dose: 7.0 mg/kg/injection, schedule: Q01DX001 (ip), vehicle: saline with Tween-80, higher = longer survival): 104 % of control and 121 % of control | T/C (endpoint: median survival time, dose: 7.5 mg/kg/injection, schedule: Q01DX001 (ip), vehicle: Klucel (hydroxypropylcellulose) (HPC), higher = longer survival): 86 % of control | T/C (endpoint: median survival time, dose: 7.5 mg/kg/injection, schedule: Q01DX001 (ip), vehicle: saline with Tween-80, higher = longer survival): 112 % of control | T/C (endpoint: median survival time, dose: 8.0 mg/kg/injection, schedule: Q01DX001 (ip), vehicle: Klucel (hydroxypropylcellulose) (HPC), higher = longer survival): 96 % of control | T/C (endpoint: median survival time, dose: 8.0 mg/kg/injection, schedule: Q01DX001 (ip), vehicle: saline + alcohol, higher = longer survival): 100 % of control and 107 % of control | T/C (endpoint: median survival time, dose: 8.0 mg/kg/injection, schedule: Q01DX005 (ip), vehicle: saline + alcohol, higher = longer survival): 118 % of control and 120 % of control | T/C (endpoint: median survival time, dose: 8.0 mg/kg/injection, schedule: Q02DX009 (ip), vehicle: saline + alcohol, higher = longer survival): 118 % of control | T/C (endpoint: median survival time, dose: 8.0 mg/kg/injection, schedule: Q08DX002 (ip), vehicle: saline + alcohol, higher = longer survival): 95 % of control | T/C (endpoint: median survival time, dose: 9.0 mg/kg/injection, schedule: Q01DX001 (ip), vehicle: Klucel (hydroxypropylcellulose) (HPC), higher = longer survival): 94 % of control | T/C (endpoint: median survival time, dose: 10.0 mg/kg/injection, schedule: Q01DX001 (ip), vehicle: Klucel (hydroxypropylcellulose) (HPC), higher = longer survival): 85 % of control and 95 % of control | T/C (endpoint: median survival time, dose: 10.0 mg/kg/injection, schedule: Q01DX005 (ip), vehicle: saline with Tween-80, higher = longer survival): 157 % of control | T/C (endpoint: median survival time, dose: 10.7 mg/kg/injection, schedule: Q01DX001 (ip), vehicle: saline with Tween-80, higher = longer survival): 111 % of control | T/C (endpoint: median survival time, dose: 11.0 mg/kg/injection, schedule: Q01DX001 (ip), vehicle: saline with Tween-80, higher = longer survival): 94 % of control and 113 % of control | T/C (endpoint: median survival time, dose: 12.0 mg/kg/injection, schedule: Q01DX001 (ip), vehicle: gum acacia, higher = longer survival): 158 % of control | T/C (endpoint: median survival time, dose: 13.0 mg/kg/injection, schedule: Q04DX004 (ip), vehicle: saline with Tween-80, higher = longer survival): 115 % of control | T/C (endpoint: median survival time, dose: 15.0 mg/kg/injection, schedule: Q01DX001 (ip), vehicle: Klucel (hydroxypropylcellulose) (HPC), higher = longer survival): 112 % of control | T/C (endpoint: median survival time, dose: 16.0 mg/kg/injection, schedule: Q01DX001 (ip), vehicle: gum acacia, higher = longer survival): 112 % of control | T/C (endpoint: median survival time, dose: 16.0 mg/kg/injection, schedule: Q01DX001 (ip), vehicle: saline + alcohol, higher = longer survival): 109 % of control | T/C (endpoint: median survival time, dose: 16.0 mg/kg/injection, schedule: Q01DX001 (ip), vehicle: saline with Tween-80, higher = longer survival): 95 % of control and 118 % of control | T/C (endpoint: median survival time, dose: 16.0 mg/kg/injection, schedule: Q05DX002 (ip), vehicle: gum acacia, higher = longer survival): 156 % of control | T/C (endpoint: median survival time, dose: 16.0 mg/kg/injection, schedule: Q06DX002 (ip), vehicle: gum acacia, higher = longer survival): 121 % of control | T/C (endpoint: median survival time, dose: 16.0 mg/kg/injection, schedule: Q07DX002 (ip), vehicle: saline with Tween-80, higher = longer survival): 83 % of control | T/C (endpoint: median survival time, dose: 16.0 mg/kg/injection, schedule: Q08DX002 (ip), vehicle: saline + alcohol, higher = longer survival): 105 % of control | T/C (endpoint: median survival time, dose: 16.0 mg/kg/injection, schedule: Q11DX002 (ip), vehicle: saline with Tween-80, higher = longer survival): 63 % of control | T/C (endpoint: median survival time, dose: 16.0 mg/kg/injection, schedule: Q11DX002 (oral), vehicle: saline with Tween-80, higher = longer survival): 103 % of control | T/C (endpoint: median survival time, dose: 18.0 mg/kg/injection, schedule: Q01DX001 (ip), vehicle: other, higher = longer survival): 118 % of control | T/C (endpoint: median survival time, dose: 20.0 mg/kg/injection, schedule: Q01DX001 (ip), vehicle: Klucel (hydroxypropylcellulose) (HPC), higher = longer survival): 115 % of control | T/C (endpoint: median survival time, dose: 22.0 mg/kg/injection, schedule: Q01DX005 (ip), vehicle: saline with Tween-80, higher = longer survival): 113 % of control | T/C (endpoint: median survival time, dose: 24.0 mg/kg/injection, schedule: Q07DX002 (ip), vehicle: saline with Tween-80, higher = longer survival): 77 % of control | T/C (endpoint: median survival time, dose: 24.0 mg/kg/injection, schedule: Q08DX002 (ip), vehicle: gum acacia, higher = longer survival): 165 % of control | T/C (endpoint: median survival time, dose: 24.0 mg/kg/injection, schedule: Q11DX002 (ip), vehicle: saline with Tween-80, higher = longer survival): 110 % of control | T/C (endpoint: median survival time, dose: 24.0 mg/kg/injection, schedule: Q11DX002 (oral), vehicle: saline with Tween-80, higher = longer survival): 103 % of control | T/C (endpoint: median survival time, dose: 25.0 mg/kg/injection, schedule: Q04DX004 (ip), vehicle: saline with Tween-80, higher = longer survival): 111 % of control | T/C (endpoint: median survival time, dose: 30.0 mg/kg/injection, schedule: Q01DX001 (ip), vehicle: Klucel (hydroxypropylcellulose) (HPC), higher = longer survival): 150 % of control | T/C (endpoint: median survival time, dose: 30.0 mg/kg/injection, schedule: Q01DX001 (ip), vehicle: saline with Tween-80, higher = longer survival): 160 % of control | T/C (endpoint: median survival time, dose: 32.0 mg/kg/injection, schedule: Q01DX001 (ip), vehicle: saline + alcohol, higher = longer survival): 86 % of control and 88 % of control | T/C (endpoint: median survival time, dose: 36.0 mg/kg/injection, schedule: Q10DX002 (ip), vehicle: gum acacia, higher = longer survival): 108 % of control | T/C (endpoint: median survival time, dose: 36.0 mg/kg/injection, schedule: Q12DX002 (ip), vehicle: gum acacia, higher = longer survival): 93 % of control | T/C (endpoint: median survival time, dose: 60.0 mg/kg/injection, schedule: Q01DX001 (ip), vehicle: Klucel (hydroxypropylcellulose) (HPC), higher = longer survival): 90 % of control | T/C (endpoint: median survival time, dose: 60.0 mg/kg/injection, schedule: Q01DX001 (ip), vehicle: saline with Tween-80, higher = longer survival): 112 % of control | T/C (endpoint: median survival time, dose: 64.0 mg/kg/injection, schedule: Q01DX001 (ip), vehicle: saline + alcohol, higher = longer survival): 57 % of control | T/C (endpoint: median survival time, dose: 128.0 mg/kg/injection, schedule: Q01DX001 (ip), vehicle: saline + alcohol, higher = longer survival): 49 % of control | T/C (endpoint: median tumor weight (est.), dose: 2.0 mg/kg/injection, schedule: Q01DX009 (ip), vehicle: Klucel (hydroxypropylcellulose) (HPC), higher = larger tumour): 82 % of control | T/C (endpoint: median tumor weight (est.), dose: 4.0 mg/kg/injection, schedule: Q01DX009 (ip), vehicle: Klucel (hydroxypropylcellulose) (HPC), higher = larger tumour): 51 % of control | T/C (endpoint: median tumor weight (est.), dose: 7.0 mg/kg/injection, schedule: Q01DX001 (ip), vehicle: DMSO, higher = larger tumour): 59 % of control | T/C (endpoint: median tumor weight (est.), dose: 7.0 mg/kg/injection, schedule: Q01DX001 (ip), vehicle: saline with Tween-80, higher = larger tumour): 90 % of control | T/C (endpoint: median tumor weight (est.), dose: 7.0 mg/kg/injection, schedule: Q01DX001 (sc), vehicle: olive oil, sesame oil, peanut oil, higher = larger tumour): 83 % of control | T/C (endpoint: median tumor weight (est.), dose: 7.5 mg/kg/injection, schedule: Q01DX001 (ip), vehicle: Klucel (hydroxypropylcellulose) (HPC), higher = larger tumour): 92 % of control | T/C (endpoint: median tumor weight (est.), dose: 8.0 mg/kg/injection, schedule: Q01DX009 (ip), vehicle: Klucel (hydroxypropylcellulose) (HPC), higher = larger tumour): 3 % of control | T/C (endpoint: median tumor weight (est.), dose: 11.0 mg/kg/injection, schedule: Q01DX001 (ip), vehicle: DMSO, higher = larger tumour): 16 % of control | T/C (endpoint: median tumor weight (est.), dose: 11.0 mg/kg/injection, schedule: Q01DX001 (ip), vehicle: saline with Tween-80, higher = larger tumour): 56 % of control | T/C (endpoint: median tumor weight (est.), dose: 11.0 mg/kg/injection, schedule: Q01DX001 (sc), vehicle: olive oil, sesame oil, peanut oil, higher = larger tumour): 53 % of control | T/C (endpoint: median tumor weight (est.), dose: 12.0 mg/kg/injection, schedule: Q01DX001 (ip), vehicle: gum acacia, higher = larger tumour): 41 % of control and 50 % of control | T/C (endpoint: median tumor weight (est.), dose: 15.0 mg/kg/injection, schedule: Q01DX001 (ip), vehicle: Klucel (hydroxypropylcellulose) (HPC), higher = larger tumour): 42 % of control | T/C (endpoint: median tumor weight (est.), dose: 16.0 mg/kg/injection, schedule: Q01DX001 (ip), vehicle: gum acacia, higher = larger tumour): 46 % of control | T/C (endpoint: median tumor weight (est.), dose: 16.0 mg/kg/injection, schedule: Q01DX001 (ip), vehicle: saline with Tween-80, higher = larger tumour): 71 % of control | T/C (endpoint: median tumor weight (est.), dose: 16.0 mg/kg/injection, schedule: Q01DX001 (sc), vehicle: olive oil, sesame oil, peanut oil, higher = larger tumour): 74 % of control | T/C (endpoint: median tumor weight (est.), dose: 24.0 mg/kg/injection, schedule: Q01DX001 (ip), vehicle: saline with Tween-80, higher = larger tumour): 31 % of control | T/C (endpoint: median tumor weight (est.), dose: 24.0 mg/kg/injection, schedule: Q01DX001 (sc), vehicle: olive oil, sesame oil, peanut oil, higher = larger tumour): 18 % of control | T/C (endpoint: median tumor weight (est.), dose: 30.0 mg/kg/injection, schedule: Q01DX001 (ip), vehicle: Klucel (hydroxypropylcellulose) (HPC), higher = larger tumour): 3 % of control
